Experimental data published in US20190352276A1, “INHIBITORS OF BRUTON'S TYROSINE KINASE” (Joint Stock Company "Biocad", priority 2016, published 2019).
Where two headings read alike, the source gives them in different places.

Columns and labels:
[1] = General cytotoxicity on HepG2 cells (CC50; therapeutic index CC50 HepG2/IC50 Mino); format: cell-based; settings: human, HepG2 cells (hepatocellular carcinoma), 72 hours, Alamar Blue
Summary of the method: (§1)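 Alamar Blue viability after 72 h exposure to compounds (final 200 μM–4 μM) gave CC50; HepG2 plated 2*10^4/well in DMEM 24 h beforehand. Therapeutic index expressed as ratio of HepG2 CC50 to Mino antiproliferative IC50.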

[2] = tested on: HepG2 cells (hepatocellular carcinoma); test: as above; format: cell-based; settings: therapeutic index
Summary of the method: as §1

[3] = tested on: DOHH2 (follicular lymphoma); test: Antiproliferative activity, DOHH2 cells (Alamar Blue); format: cell-based; settings: Homo sapiens, DOHH-2, Table 10, 72 h, average of several tests
Method: Antiproliferative activity of BTK inhibitors was measured in cell-based bioassay on B-cells cultures: Mino (mantle cell lymphoma, ATCC® CRL-3000™), Z-138 (mantle cell lymphoma, ATCC® CRL-3001™) and DOHH2 (follicular lymphoma, Creative Bioarray CSC-C0219) using cell viability reagent Alamar Blue (Invitrogen, #DAL 1100). Cells were cultured in 10% FB S-supplemented (HyClone, #SH3008803/Gibco, #16140-071) RPMI-1640 (PanEco, #S330p) for at least 1 passage after thawing, washed with PBS and passaged in 96-well culture plates (Corning, #3599) with growth medium with 10% FBS (HyClone, #SH3008803/Gibco, #16140-071) and antibiotic (50 μg/ml of gentamicin (Biolot, #1.3.16))≈3*10^4 cells in 50 μl of medium per well.
The compounds were dissolved in DMSO and diluted with the assay medium to final concentrations ranging from […]. 150 μl of each diluted compound were then added to each well (final concentration of DMSO was less than 1%) and incubated at 37° C. in an incubator under 5% of CO2 for 72 h. After incubation, 20 μl of Alamar Blue reagent (Invitrogen, #DAL1100) were added to each well. The plates were shaked on an orbital shaker (Biosan, Latvia) and then incubated for 14-16 hours at 37° C. in the incubator.
The number of living cells were estimated, measuring the fluorescence signal at the excitation wavelength (REx) of 540 nm and the emission wavelength (λEm) of 590 nm on a microplate reader (Tecan Infinite M200Pro, Switzerland).
For each compound, IC50 was calculated using Magellan 7.2 software (Tecan, Switzerland) approximating experimental points by four-parameter logistic model with the optimization by Levenberg-Marquardt.

[4] = Chemical stability in artificial gastric fluid (SGF without enzymes); settings: 10 μM in SGF without enzymes, pH=1.4, 37° C.
[5] = tested on: Z-138 (mantle cell lymphoma); test: Antiproliferative activity, Z-138 cells (Alamar Blue); format: cell-based; settings: Homo sapiens
Summary of the method: (§2)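 IC50 values come from a four-parameter logistic fit of Alamar Blue fluorescence (540 nm excitation, 590 nm emission) read 14-16 h after reagent addition. Before that, the lymphoma lines, about 3*10^4 cells per well in 10% FBS RPMI-1640, were incubated with compound for 72 h at 37 °C, keeping final DMSO below 1%.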

[6] = target: T1, recombinant Btk kinase enzyme (Homo sapiens, UniProt Q06187); test: In vitro inhibition of Btk kinase activity (ADP-Glo); format: biochemical
T1 construct: purchased SignalChem B10-10H
Method: To assess Btk kinase activity described herein, SignalChem kinase system was used. Btk kinase activity was determined in the reaction between recombinant Btk kinase enzyme (SignalChem #B10-10H) and Poly (4:1 Glu, Tyr) peptide substrate in the presence of the inhibitor.
Staurosporine (Abcam Biochemicals, ab146588) was used as a reference inhibitor and 0.1% DMSO in the reaction buffer—as a negative control. The solution of 0.5 mg/mL peptide substrate and 50 &M ATP in the same buffer were added; the solution was incubated for 180 minutes at 37° C. To detect the amount of ATP taken up during the kinase reaction, the equivalent amount of ADP (from the ADP Glo Detection Kit (Promega, #V9101)) was used according to the protocol. The reaction mixture was equilibrated to room temperature. 25 µL of ADP-Glo Reagent were added into each well; the plate was incubated for 40 minutes. 50 μL of Kinase Detection Reagent were added; the plate was incubated for 30 minutes. The luminescence was measured with multimode plate reader (Tecan Infinite M200Pro, Switzerland). IC50 values were calculated using Magellan 7.2 software (Tecan, Switzerland) approximating experimental points by four-parameter logistic model with the optimization by Levenberg-Marquardt.

[7] = tested on: Mino (mantle cell lymphoma); test: Antiproliferative activity, Mino cells (Alamar Blue); format: cell-based; settings: Homo sapiens
Summary of the method: as §2

[8] = Stability in human blood plasma; settings: 10 μM in pooled human blood plasma, incubated 4 hours at 37° C.
[9] = Permeability through the monolayer of Caco-2 cells; format: in vitro ADME; settings: human; for Papp A→B at 2 h, 10 μM / Papp B→A at 2 h, 10 μM: 2 h at 37° C.; for efflux ratio at 2 h, 10 μM: read-out: efflux (Papp B-A/Papp A-B)
Excerpt: Assessment of permeability through the monolayer of Caco-2 cells allows to evaluate the ability of the candidate compounds to penetrate through biological membranes by active and passive transport.
Caco-2, the cells of the intestinal epithelium, had been cultured in transwell plate inserts with the filters (with pores of 0.4 μm, BD Falcon with High Density, #353495) for 21 days, and then the integrity of the monolayer were estimated with Lucifer Yellow dye (Sigma-Aldrich, USA) by standard protocol. When setting the A→B transfer, solutions of test substances were added in a buffer with pH 6.5 (Hanks solution, 10 mM HEPES, 15 mM glucose solution) with the concentration of 10 μM into the upper chamber; the lower chamber was filled with a buffer with pH 7.4 (Hanks solution, 10 mM HEPES, 15 mM glucose solution, 1% BSA). When setting B→A transfer, the upper chamber was filled with the buffer with pH 6.5, and solutions of the test substances were added in the buffer with pH 7.4 at the concentration of 10 μM in the lower chamber. Propranolol was used as a control substance (as it has high permeability).
We used gradient elution (1 mL/min flow rate). We determined the areas of peaks corresponding to the compounds. On the basis of peak areas in the calibration standards we determined the concentration of compound in the initial solution and in the samples from the wells of the upper and lower chambers.
Papp, permeability through the cell layer, was calculated using the following formula:
Papp=(C(t)*V)/(C(0)*t*Area), where
Papp is the effective constant of permeability, m/s V is the volume of solution (0.8 ml in A→B test, 0.2 ml in B→A test), ml Area is the surface area of the membrane (0.33 cm^2), cm^2 t is the time of incubation (7200 sec), sec C(0) is the concentration of the initial solution, μM C(t) is the concentration of the solution after 2 hours (the concentration in the sample from the well of the lower chamber in A→B test; the concentration in the sample from the well of the top chamber in B→A test), μM
The value was calculated with the following formula:
efflux=Papp B-A/Papp A-B, where
Papp A-B is the value of the permeability in the direct test (A→B); Papp B-A is the value of the permeability in the backward test in (B→A).

[10] = Table 10, average of several tests
[11] = Table 10, 72 h, average of several tests
[12] = Table 8, ADP-Glo, read-out: IC50 kinase BTK

T1 sequence (Q06187 whole entry): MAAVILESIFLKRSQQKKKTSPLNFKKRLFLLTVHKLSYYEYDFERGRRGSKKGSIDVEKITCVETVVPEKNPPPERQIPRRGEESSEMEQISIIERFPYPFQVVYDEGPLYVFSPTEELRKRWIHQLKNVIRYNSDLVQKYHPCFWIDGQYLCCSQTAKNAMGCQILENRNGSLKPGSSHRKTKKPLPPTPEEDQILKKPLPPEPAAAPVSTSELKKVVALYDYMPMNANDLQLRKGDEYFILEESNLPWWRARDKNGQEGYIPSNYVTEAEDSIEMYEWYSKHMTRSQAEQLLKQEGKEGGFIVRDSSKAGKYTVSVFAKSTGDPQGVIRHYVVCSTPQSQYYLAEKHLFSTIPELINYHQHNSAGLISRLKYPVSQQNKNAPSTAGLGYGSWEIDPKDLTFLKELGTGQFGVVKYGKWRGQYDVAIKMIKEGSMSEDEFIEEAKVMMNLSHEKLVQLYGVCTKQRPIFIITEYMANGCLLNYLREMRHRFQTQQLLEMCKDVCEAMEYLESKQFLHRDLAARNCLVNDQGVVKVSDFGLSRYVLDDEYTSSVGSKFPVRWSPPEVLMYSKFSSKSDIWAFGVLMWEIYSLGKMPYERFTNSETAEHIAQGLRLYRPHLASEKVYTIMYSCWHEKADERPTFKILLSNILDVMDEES

| Compound | IC50 [3] [nM] | Amount of substance in the sample in % (chemical stability) [4] [%] | IC50 [5, 11] [nM] | IC50 [6, 12] [nM] | IC50 [7, 11] [nM] | CC50 at 72 h [1, 10] [nM] | CC50 (HepG2)/IC50 (Mino) ([2]; Table 10) | also measured |
| --- | --- | --- | --- | --- | --- | --- | --- | --- |
| C=CC(=O)N1CCC[C@@H](n2nc(-c3ccc(C(=O)Nc4cc(C(F)(F)CC)ccn4)cc3)c3cncc(Cl)c32)C1 [BCD-BTK-215, (R)-4-(1-(1-acryloylpiperidin-3-yl)-7-chloro-1H-pyrazolo[4,3-c]pyridin-3-yl)-N-(4-(1,1-difluoropropyl)pyridin-2-yl)benzamide] | > 100000 |  | 8000 | 35.8 | 2930 | > 100000 | >34.11 |  |
| CC#CC(=O)N1CCC[C@@H](n2nc(-c3ccc(C(=O)Nc4ccccn4)cc3)c3c(N)ncc(Cl)c32)C1 [BCD-BTK-295, (R)-4-(4-amino-1-(1-(but-2-ynoyl)piperidin-3-yl)-7-chloro-1H-pyrazolo[4,3-c]pyridin-3-yl)-N-(pyridin-2-yl)benzamide] | 1940 |  | 1190 | 65.2 | 2000 | 32500 | 16.23 |  |
| C=CC(=O)N1CCC[C@@H](n2nc(-c3ccc(C(=O)Nc4ccc(F)cn4)cc3)c3cncc(F)c32)C1 [BCD-BTK-244, (R)-4-(1-(1-acryloylpiperidin-3-yl)-7-fluoro-1H-pyrazolo[4,3-c]pyridin-3-yl)-N-(5-fluoropyridin-2-yl)benzamide] |  | 100 |  | 55.7 |  |  |  |  |
| C=CC(=O)N1CCC[C@@H](n2nc(-c3ccc(Oc4ccncc4)cc3)c3cncc(C#N)c32)C1 [BCD-BTK-123, (R)-1-(1-acryloylpiperidin-3-yl)-3-(4(pyridin-4-yloxy)phenyl)-1H-pyrazolo[4,3-c]pyridin-7-carbonitrile] |  |  |  |  |  |  |  | Papp A→B at 2 h, 10 μM [9]: 14.8 ×10⁻⁶ cm/s; Papp B→A at 2 h, 10 μM [9]: 7.4 ×10⁻⁶ cm/s; efflux ratio at 2 h, 10 μM [9]: 0.5; CC50 at 72 h ([1]; Table 11): 50400 nM; CC50 (HepG2)/IC50 (Mino) ([2]; Table 11): 3.81; IC50 ([5]; Table 11, 72 h): 28000 nM; IC50 ([6]; Table 11, BTK kinase, read-out: IC50 kinase): 1510 nM; IC50 ([7]; Table 11, 72 h): 13200 nM |
| C=CC(=O)N1CCC[C@@H](n2nc(-c3ccc(C(=O)Nc4ccccn4)cc3)c3cncc(C#N)c32)C1 [BCD-BTK-228, (R)-4-(1-(1-acryloylpiperidin-3-yl)-7-cyano-1H-pyrazolo[4,3-c]pyridin-3-yl)-N-(pyridin-2-yl)benzamide] |  | 99.9 |  | 38.9 |  |  |  | Amount of substance in the sample, % (stability in human blood plasma) [8]: 85.2%; Papp A→B at 2 h, 10 μM [9]: 8 ×10⁻⁶ cm/s; Papp B→A at 2 h, 10 μM [9]: 1.4 ×10⁻⁶ cm/s; efflux ratio at 2 h, 10 μM [9]: 0.17 |
| C=CC(=O)N1CCC[C@@H](n2nc(-c3ccc(C(=O)Nc4ccccn4)cc3)c3cncc(F)c32)C1 [BCD-BTK-243, (R)-4-(1-(1-acryloylpiperidin-3-yl)-7-fluoro-1H-pyrazolo[4,3-c]pyridin-3-yl)-N-(pyridin-2-yl)benzamide] |  | 99.6 |  | 29.3 |  |  |  |  |

The remaining compounds from weak to strong by IC50 [6, 12], led by results:

| IC50 [3] [nM] | Amount of substance in the sample in % (chemical stability) [4] [%] | IC50 [5, 11] [nM] | IC50 [6, 12] [nM] | IC50 [7, 11] [nM] | Compound | CC50 at 72 h [1, 10] [nM] | CC50 (HepG2)/IC50 (Mino) ([2]; Table 10) | also measured |
| --- | --- | --- | --- | --- | --- | --- | --- | --- |
|  | 100 |  | 19.6 |  | C=CC(=O)N1CCC[C@H](Cn2nc(-c3ccc(C(=O)Nc4ccccn4)cc3)c3cncc(Cl)c32)C1 [BCD-BTK-290, (S)-4-(1-((1-acryloylpiperidin-3-yl)methyl)-7-chloro-1H-pyrazolo[4,3-c]pyridin-3-yl)-N-(pyridin-2-yl)benzamide] |  |  | Amount of substance in the sample, % (stability in human blood plasma) [8]: 100.0% |
|  |  | 3260 | 15.3 | 2380 | C=CC(=O)N1CCC[C@@H](n2nc(-c3ccc(C(=O)Nc4cccc(F)n4)cc3)c3c(N)ncc(Cl)c32)C1 [BCD-BTK-250, (R)-4-(1-(1-acryloylpiperidin-3-yl)-4-amino-7-chloro-1H-pyrazolo[4,3-c]pyridin-3-yl)-N-(6-fluoropyridin-2-yl)benzamide] | 12200 | 5.13 |  |
| > 100000 |  | > 50000 | 14.7 | 5810 | C=CC(=O)N1CCC[C@@H](n2nc(-c3ccc(C(=O)Nc4cc(C(F)(F)CCC)ccn4)cc3)c3cncc(F)c32)C1 [BCD-BTK-247, (R)-4-(1-(1-acryloylpiperidin-3-yl)-7-fluoro-1H-pyrazolo[4,3-c]pyridin-3-yl)-N-(4-(1,1-difluorobutyl)pyridin-2-yl)benzamide] | > 100000 | >17.21 |  |
| > 100000 | 100 | > 100000 | 13.9 | 18600 | C=CC(=O)N1CCC[C@@H](n2nc(-c3ccc(C(=O)Nc4ncccc4F)cc3)c3cncc(C#N)c32)C1 [BCD-BTK-235, 4-{7-cyano-1-[(3R)-1-(prop-2-enoyl)piperidin-3-yl]-1H-pyrazolo[4,3-c]pyridin-3-yl}-N-(3-fluoropyridin-2-yl)benzamide] | > 100000 | >5.37 |  |
|  |  | 6650 | 11.2 | 2950 | C=CC(=O)N1CCC[C@@H](n2nc(-c3ccc(C(=O)Nc4cc(C(F)(F)CCC)ccn4)cc3)c3c(N)ncc(Cl)c32)C1 [BCD-BTK-254, (R)-4-(1-(1-acryloylpiperidin-3-yl)-4-amino-7-chloro-1H-pyrazolo[4,3-c]pyridin-3-yl)-N-(4-(1,1-difluorobutyl)pyridin-2-yl)benzamide] | 12300 | 4.18 |  |
